Experimental findings from patent US4212866A, “Pharmaceutically active derivatives of 9-[3-(4-amino-piperidino)-propyl]-adenines” (Boehringer Mannheim GmbH, priority 1978, dated 1980) are described below.

The first experiment relates to passive cutaneous anaphylactic reaction. Description: inhibition of the passive cutaneous anaphylactic (PCA) reaction in rats induced by reaginic antibodies to egg albumin. It counts as in vivo. Particulars: Rattus norvegicus, iv, 0.75 mg/kg, intravenously immediately before antigen. How it is done:
Diethylcarbamazin, i.e. 1-diethylcarbamoyl-4-methylpiperazine, was used as a comparison compound. Specifically, tests were run as follows:
Serum containing reaginic (IgE-like) antibody to egg albumin was prepared by injecting rats intramuscularly with 0.1 ml of a solution of the antigen (10 mg/ml) in saline together with 0.5 ml of Bordetella pertussis vaccine (Behring; 2×10^10 organisms/ml). 9-14 Days later the animals were bled from the abdominal aorta; the serum was pooled and stored at -20° C. until required. The titer of the serum, i.e. the highest dilution inducing passive cutaneous anaphylaxis (PCA) in the rat following a 48-hour latent period, was between 1:8 and 1:32. For use in these experiments the serum was diluted 1:24.
The animals were anesthetized with 2,2-dichloro-1,1-difluoroethyl-methyl ether, sold under the trademark Penthrane, and were sensitized by injecting 0.1 ml of the antiserum into the shaved abdominal flanks. After 48 hours for reaginic PCA, the animals were given an intravenous injection of 1 ml of saline solution containing 0.5% by weight of egg albumin and 0.25% by weight of Evans Blue.
After having killed and exsanguinated the animals, the size in square millimeters and the intensity, in arbitary scores, of the resulting blue spot were determined. The product of these two parameters was used to determine the degree of the reaction and the degree of reaction with no active material was taken as the standard against which to measure % inhibition of the anaphylactic reaction.
6 Animals were used per dose level and for control.
The test material was injected intravenously immediately before the antigen, using a solution in water containing 0.5% HCl and 2% of dimethylformamide. For comparative purposes there was also tested diethylcarbamoyl-4-methylpiperazine sold under the tradename Diethylcarbamazin. The volumes of the injections were varied to give the indicated dosage of the active material. The results obtained were as follows:
PCA Reaction in Rats Induced by Reaginic Antibodies
(Ovalbumin 2×cryst, and Bord. pertussis 2×10^10) Active material applied intravenously immediately before antigen.
Usually inhibition in vivo stands for the percentage by which the read-out fell short of the control. `O=C(NC1CCN(CCCn2cnc3c(NCCO)ncnc32)CC1)c1ccccc1` [Example 2j, N^6-(2-Hydroxyethyl)-9-[3-(4-benzamido-piperidino)-propyl] adenine]: testing at 0.75 mg/kg gave an inhibition in vivo of 44%.
Still for that read-out and setting: next, `CCCCNc1ncnc2c1ncn2CCCN1CCC(NC(=O)c2ccccc2)CC1` [Example 2k, N^6-n-Butyl-9-[3-(4-Benzamido-piperidino)-propyl]-adenine]: 41%.

The same experiment, now with this note: Rattus norvegicus, iv, 1.5 mg/kg, intravenously immediately before antigen.
Turning to `Cc1ccc(C(=O)NC2CCN(CCCn3cnc4c(N)ncnc43)CC2)cc1` [Example 2f, 9-{-[4-(4-Methyl-benzamido)-piperidio]-propyl}-adenine], the inhibition in vivo at 1.5 mg/kg worked out at 74%.
Same read-out and setting: for `Nc1ncnc2c1ncn2CCCN1CCC(NC(=O)c2ccc(Cl)cc2)CC1` [Example 4a, 9-{3-[4-(4-Chlorobenzamido)-piperidino]-propyl}-adenine] the value was 80%; for `CN(C)c1ncnc2c1ncn2CCCN1CCC(NC(=O)c2ccccc2)CC1` [Example 2l, 6-Dimethylamino-9-[3-(4-benzamido-piperidino)-propyl]-purine], 43%; for `Nc1ncnc2c1ncn2CCCN1CCC(NC(=O)c2ccc(F)cc2)CC1` [Example 2b, 9-{3-[4-(4-Fluorobenzamido)-piperidino]-propyl}-adenine], 65%.
Same read-out and setting: for `O=C(NC1CCN(CCCn2cnc3c(N4CCCCC4)ncnc32)CC1)c1ccccc1` [Example 2m, 6-Piperidino-9-[3-(4-benzamido-piperidino)-propyl]-purine] the value was 36%; for `Nc1ncnc2c1ncn2CCCN1CCC(NC(=O)Cc2ccccc2)CC1` [Example 4d, 9-{3-[4-(Phenyl-acetamido)-piperidino]-propyl}-adenine], 30%; for `Nc1ncnc2c1ncn2CCCN1CCC(NC(=O)c2ccco2)CC1` [Example 4f, 9-{3-[4-(Furan-2-carbonylamido)-piperidino]-propyol}-adenine], 44%.
On the same count and under the same terms, for `Cc1ccccc1C(=O)NC1CCN(CCCn2cnc3c(N)ncnc32)CC1` [Example 2e, 9-{3-[4-(2-Methyl-benzamido)-piperidino]-propyl}-adenine] the value was 39%.

Still in this experiment, the particulars now being: Rattus norvegicus, iv, 60.0 mg/kg, intravenously immediately before antigen.
`CCN(CC)C(=O)N1CCN(C)CC1` [Diethylcarbamazin, 1-diethylcarbamoyl-4-methylpiperazine, reference compound] yielded an inhibition in vivo at 60 mg/kg of 58%.
